# Data: publication PMC2630366 (The Journal of pharmacology and experimental therapeutics, 2008)
# Like-named read-outs stand apart in the source and are kept apart here. Where no end group is shown, it is not given here.
# Legend:
# mice [1] = conditions: 50 mgs/kg, ref Okamura et al., 2008; cited from earlier work
# [2] = ref Okamura et al., 2008; cited from earlier work
# mice [3] = conditions: administered into the amygdala in mice; ref Jungling et al., 2008; cited from earlier work
# native hPAR2 = target: T1, native hPAR2 (Homo sapiens, UniProt P55085); test: Selectivity: calcium mobilization, native hPAR2 in A549 cells; type: cell-based
# T1 sequence (P55085 26-397): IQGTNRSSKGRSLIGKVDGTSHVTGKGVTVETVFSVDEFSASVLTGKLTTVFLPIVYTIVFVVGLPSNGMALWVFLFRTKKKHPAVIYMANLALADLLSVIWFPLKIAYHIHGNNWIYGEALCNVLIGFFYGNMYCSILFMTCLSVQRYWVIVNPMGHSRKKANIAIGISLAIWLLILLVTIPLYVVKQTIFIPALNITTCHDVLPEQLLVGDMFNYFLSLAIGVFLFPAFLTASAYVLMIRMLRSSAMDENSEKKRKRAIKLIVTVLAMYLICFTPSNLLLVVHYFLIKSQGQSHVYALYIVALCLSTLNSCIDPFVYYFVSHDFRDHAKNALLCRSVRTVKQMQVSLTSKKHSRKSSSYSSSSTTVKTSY
# Swiss mice = test: Mouse righting reflex recovery test, Swiss mice; type: in vivo; conditions: diazepam 15 mg/kg i.p., 16 mice per group
# NPSR^+/+ mice = test: Mouse righting reflex recovery test, NPSR^+/+ mice; type: in vivo; conditions: diazepam 15 mg/kg i.p.
# NPSR^-/- mice = test: Mouse righting reflex recovery test, NPSR^-/- mice; type: in vivo; conditions: diazepam 15 mg/kg i.p.
molecule,measurement,setting,value
"O=C(NCc1ccc(F)cc1)N1CCN2C(=O)OC(c3ccccc3)(c3ccccc3)C2C1 (centres unmarked) [SHA 68, 3-oxo-1,1-diphenyl-tetrahydro-oxazolo[3,4-a]pyrazine-7-carboxylic acid 4-fluoro-benzylamide]",effect on NPS-stimulated locomotion,mice [1],able to partially counteract the stimulatory effects of NPS on locomotion
same,blood brain barrier penetration,[2],limited blood brain barrier penetration
same,effect on anxiety and extinction of conditioned fear responses,mice [3],exerts functionally opposing responses
SLIGKV-NH2 [SLIGKV-NH2],EC50,native hPAR2,21.9 µM
same,Emax,"native hPAR2; A549, read-out: Emax, control",449 ± 25%
same,Emax,"native hPAR2; A549, read-out: Emax, in presence of [D-Cys(tBu)^5]NPS 10 μM",433 ± 37%
CN1C(=O)CN=C(c2ccccc2)c2cc(Cl)ccc21 [diazepam],percent of animals losing the righting reflex,Swiss mice,92%
same,percent of animals losing the righting reflex,NPSR^+/+ mice; 10-12 mice per group,100%
same,sleeping time (time to regain the RR),NPSR^+/+ mice; mean ± sem of 10-12 mice,180 ± 18 min
same,percent of animals losing the righting reflex,NPSR^-/- mice; 10-12 mice per group,100%
same,sleeping time (time to regain the RR),NPSR^-/- mice; mean ± sem of 10-12 mice,211 ± 19 min
